Source: the supplement of paper PMC10307832

Tests used:
Assay in all cases: relative viability (nuclei count vs DMSO), 5 days (fraction); higher = more cells survive
RAF265 + Tozasertib = compound: Cn1c(Nc2ccc(C(F)(F)F)cc2)nc2cc(Oc3ccnc(-c4ncc(C(F)(F)F)[nH]4)c3)ccc21 [RAF265] + Cc1cc(Nc2cc(N3CCN(C)CC3)nc(Sc3ccc(NC(=O)C4CC4)cc3)n2)n[nH]1 [Tozasertib] (partner 0.1 µM)
How it was run: (§1)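 A single step with final 0.05% Triton X-100, 1% formaldehyde and 1 ug/ml Hoechst fixed the cells and stained nuclei 5 days after treatment. Lung cancer cell lines in 1536-well plates had been treated by pin tool the day after seeding with one drug alone or a fixed anchor-drug dose plus five library-drug doses (not always all listed) in √10 steps, and nuclei were counted on 4× images. Relative viability is the ratio of nuclei in treated wells to nuclei in vehicle wells, taken as the median of duplicate plates.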

IPA-3 + Foretinib = compound: C1=CC=C2C(=C1)C=CC(=C2SSC3=C(C=CC4=CC=CC=C43)O)O [IPA-3] + COc1cc2c(Oc3ccc(NC(=O)C4(C(=O)Nc5ccc(F)cc5)CC4)cc3F)ccnc2cc1OCCCN1CCOCC1 [Foretinib] (partner 0.25 µM)
How it was run: as §1

RAF265 + Decitabine = compound: Cn1c(Nc2ccc(C(F)(F)F)cc2)nc2cc(Oc3ccnc(-c4ncc(C(F)(F)F)[nH]4)c3)ccc21 [RAF265] + Nc1ncn([C@H]2C[C@H](O)[C@@H](CO)O2)c(=O)n1 [Decitabine] (partner 2 µM)
How it was run: as §1

Doramapimod + Pemetrexed = compound: Cc1ccc(-n2nc(C(C)(C)C)cc2NC(=O)Nc2ccc(OCCN3CCOCC3)c3ccccc23)cc1 [Doramapimod] + Nc1nc2[nH]cc(CCc3ccc(C(=O)N[C@@H](CCC(=O)O)C(=O)O)cc3)c2c(=O)[nH]1 [Pemetrexed] (partner 0.2 µM)
How it was run: as §1

| Cell Line | relative viability (RAF265 + Tozasertib; first compound 0.01 µM) | relative viability (RAF265 + Tozasertib; first compound 0.03162 µM) | relative viability (RAF265 + Tozasertib; first compound 0.1 µM) | relative viability (RAF265 + Tozasertib; first compound 0.3162 µM) | relative viability (RAF265 + Tozasertib; first compound 1 µM) | relative viability (IPA-3 + Foretinib; first compound 0.2 µM) | relative viability (IPA-3 + Foretinib; first compound 0.6325 µM) | relative viability (IPA-3 + Foretinib; first compound 2 µM) | relative viability (IPA-3 + Foretinib; first compound 6.325 µM) | relative viability (IPA-3 + Foretinib; first compound 20 µM) | relative viability (RAF265 + Decitabine; first compound 0.01 µM) | relative viability (RAF265 + Decitabine; first compound 0.03162 µM) | relative viability (RAF265 + Decitabine; first compound 0.1 µM) | relative viability (RAF265 + Decitabine; first compound 0.3162 µM) | relative viability (RAF265 + Decitabine; first compound 1 µM) | relative viability (Doramapimod + Pemetrexed; first compound 0.02 µM) | relative viability (Doramapimod + Pemetrexed; first compound 0.06325 µM) | relative viability (Doramapimod + Pemetrexed; first compound 0.2 µM) | relative viability (Doramapimod + Pemetrexed; first compound 0.6325 µM) | relative viability (Doramapimod + Pemetrexed; first compound 2 µM) |
| --- | --- | --- | --- | --- | --- | --- | --- | --- | --- | --- | --- | --- | --- | --- | --- | --- | --- | --- | --- | --- |
| NCI-H727 | 0.703 | 0.642 | 0.641 | 0.536 | 0.411 | 0.898 | 0.81 | 1.17 | 0.615 | 0.73 | 0.885 | 0.854 | 0.708 | 0.805 | 0.75 |  |  |  |  |  |
| HARA | 0.12 | 0.0972 | 0.13 | 0.0934 | 0.0806 | 1.23 | 0.854 | 0.943 | 0.855 | 1.31 | 0.652 | 0.468 | 0.53 | 0.426 | 0.414 | 0.246 | 0.234 | 0.266 | 0.314 | 0.225 |
| NCI-H2228 | 0.329 | 0.235 | 0.334 | 0.211 | 0.131 | 0.979 | 0.805 | 0.842 | 1.07 | 1.22 |  |  |  |  |  | 0.339 | 0.354 | 0.322 | 0.393 | 0.308 |
| LCLC-97TM1 | 0.223 | 0.141 | 0.156 | 0.109 | 0.0904 | 0.958 | 0.928 | 0.915 | 0.861 | 0.958 | 0.248 | 0.203 | 0.191 | 0.159 | 0.122 | 0.181 | 0.171 | 0.164 | 0.184 | 0.156 |
| LC-2-ad | 0.529 | 0.459 | 0.507 | 0.356 | 0.335 | 0.986 | 0.934 | 0.832 | 0.938 | 1.03 | 0.778 | 0.814 | 0.884 | 0.773 | 0.516 | 0.268 | 0.291 | 0.297 | 0.28 | 0.289 |
